System: primary culture of dopaminergic Tyrosine hydroxylase (TH)-positive neurons
Assay: Cellular model of Parkinson's disease (MPTP/MPP+ injury)
Assay type: cell-based, rat
Text: This model (run by Neuro-Sys SAS, France) is based on a primary culture of dopaminergic Tyrosine hydroxylase (TH)-positive neurons injured with the dopaminergic neurons-specific toxin (DA-toxin) 1-methyl-4-phenyl-1,2,3,6 tetrahydropyridine (MPTP, a prodrug of MPP^+) (Dauer and Przedborski, 2003). Any substances reducing DA-toxin neurotoxicity may be useful as a new therapeutic agent for the treatment or prevention of PD.
Primary culture of mesencephalic neurons: Rat dopaminergic neurons were cultured as described by Visanji et al., 2008 and Callizot et al., 2019. Briefly, pregnant female rat (Wistar) of 15 days of gestation were killed using a deep anesthesia with CO2 chamber and a cervical dislocation. The midbrains obtained from 15-day-old rat embryos (Janvier, France) were dissected under a microscope. The embryonic midbrains will be removed and placed in ice-cold medium of Leibovitz (L15) containing 2% of Penicillin-Streptomycin (PS) and 1% of bovine serum albumin (BSA). The ventral portion of the mesencephalic flexure, a region of the developing brain rich in dopaminergic neurons, was used for the cell preparations.
The midbrains were dissociated by trypsinisation for 20 min at 37° C. (solution at a final concentration of 0.05% trypsin and 0.02% EDTA). The reaction was stopped by the addition of Dulbecco's modified Eagle's medium (DMEM) containing DNAase I grade II (0.5 mg/mL) and 10% of foetal calf serum (FCS). Cells were then mechanically dissociated by 3 passages through a 10 ml pipette. Cells were then centrifuged at 180×g for 10 min at +4° C. on a layer of BSA (3.5%) in L15 medium. The supernatant was discarded, and the cell pellets re-suspended in a defined culture medium consisting of Neurobasal supplemented with B27 (2%), L-glutamine (2 mM) and 2% of PS solution and 10 ng/mL of Brain-derived neurotrophic factor (BDNF) and 1 ng/ml of Glial-Derived Neurotrophic Factor (GDNF). Viable cells were counted in a Neubauer cytometer using the trypan blue exclusion test. The cells were seeded at a density of 40,000 cells/well in 96 well-plates (pre-coated with poly-L-lysine) and maintained in a humidified incubator at 37° C. in 5% CO2/95% air atmosphere. Half of the medium was changed every 2 days with fresh medium. The wells of first and last lines and columns […] (to avoid any edge effect) and were be filled with sterile water.
• i) Pre-incubation. On day 6 of culture, the test compounds were dissolved in PBS or DMSO and incubated for 1 hour before the MPTP exposure. • ii) Injury. One hour after the application of test compound, MPTP was added to a final concentration of 4 μM, diluted in control medium still in presence of compounds/inhibitors for 48 h. Test compounds were tested on one culture in 96-well plate (n=6 culture wells per condition).
Immunostaining: TH and α-Synuclein. 48 Hours after intoxication, the cell culture supernatant was removed, and the cells were fixed by a solution of 4% paraformaldehyde in PBS, pH=7.3 for 20 min at room temperature. The cells were washed twice in PBS, and then permeabilized. Non-specific sites were blocked with a solution of PBS containing 0.1% of saponin and 1% FCS for 15 min at room temperature. The cultures were incubated with: (a) monoclonal anti-Tyrosine Hydroxylase (TH) antibody produced in mouse at dilution of 1/10000 in PBS containing 1% FCS, 0.1% saponin, for 2 hours at room temperature, and (b) polyclonal anti-alpha synuclein (α-synuclein) antibody produced in rabbit at dilution of 1/200 in PBS containing 1% FCS, 0.1% saponin, for 2 h at room temperature.
Automatic computer analysis. For each condition, 20 pictures (representing the whole well area) were automatically taken using ImageXpress® (Molecular Devices) at 10× magnification (20 pictures, for TH and α-synuclein into TH neurons) using the same acquisition parameters. From images, analyses was directly and automatically performed by MetaXpress® (Molecular Devices). […]

[1] = 500 nM, compared to MPP+ injury alone

**Q.** Which “effects in the in vitro model of PD based on MPP+ injury” value does the source give for `CCN1CCC(N(C)C(=O)c2csc(-c3cnn(-c4ccccc4)c3)n2)CC1` [Compound 196, N-(1-ethylpiperidin-4-yl)-N-methyl-2-(1-phenyl-1H-pyrazol-4-yl)-1,3-thiazole-4-carboxamide] here?
**A.** positive effects

**Q.** And the “decrease in α-syn area per dopaminergic TH positive neuron” value (100 nM, compared to MPP+ injury alone)?
**A.** 26%

**Q.** What about the “decrease in α-syn area per dopaminergic TH positive neuron” value [1] of the same molecule?
**A.** 35%

**Q.** And the “increase in the number of dopaminergic TH positive neurons” value [1]?
**A.** 26%

**Q.** What about the “decrease in α-syn area per dopaminergic TH positive neuron” value (1 μM, compared to MPP+ injury alone) of the same molecule?
**A.** 19%

— patent US20250034127A1, “AUTOPHAGY INDUCING COMPOUNDS AND USES THEREOF, IN PARTICULAR FOR DISEASES OF THE CNS” (Samsara Therapeutics Inc., priority 2021, published 2025)
